Reference: paper PMC10504751, “Chalcone/1,3,4-Oxadiazole/Benzimidazole hybrids as novel anti-proliferative agents inducing apoptosis and inhibiting EGFR & BRAFV^600E” (BMC Chemistry, 2023)
Several values for one entry are separate records, joined by “and”; a condition that tells them apart may be missing. Equal values may be shown once. Read-outs that look alike come from different tables or passages of the source.

Assays:
[1] = tested on: HCT-116; assay: NCI one-dose SRB anti-proliferative screen; format: cell-based, human; conditions: for Growth Percent: 10 µM one dose; for inhibition at 10 µM: Homo sapiens, read-out: Cell growth inhibition %
Method: (§1) The twenty-four synthesized compounds were submitted to the National Cancer Institute (NCI), USA. Eighteen hybrids 7a-h, 7k-r, 7u, and 7v were selected by NCI for one-dose assessment of their anti-proliferative activities at 10 µM dose by Sulforhodamine B colorimetric assay. The assessment was performed in 60 cell lines derived from nine tumor subpanels, comprising lung, leukemia, melanoma, colon, renal, CNS, prostate, breast, and ovarian cancer cell lines.
(§2) The methodology of the NCI anti-proliferative screening has been described in details elsewhere (http://www.dtp.nci.nih.gov).

[2] = tested on: MOLT-4; assay: NCI one-dose SRB anti-proliferative screen; format: cell-based, human; conditions: for inhibition at 10 µM: Homo sapiens, read-out: Cell growth inhibition %
Method: as §1, §2

[3] = tested on: T-47D; assay: NCI one-dose SRB anti-proliferative screen; format: cell-based, human; conditions: for inhibition at 10 µM: Homo sapiens, T47D, read-out: Cell growth inhibition %
Method: as §1, §2

[4] = tested on: K-562; assay: NCI one-dose SRB anti-proliferative screen; format: cell-based, human; conditions: for inhibition at 10 µM: Homo sapiens, K562, read-out: Cell growth inhibition %; for Growth Percent: 10 µM one dose
Method: as §1, §2

[5] = tested on: RXF 393; assay: NCI one-dose SRB anti-proliferative screen; format: cell-based, human; conditions: Homo sapiens, read-out: Cell growth inhibition %
Method: as §1, §2

[6] = tested on: Cytochrome C in MCF-7 human breast cancer cell line; assay: Cytochrome C assay; format: cell-based
[7] = MTT cell viability assay in normal cells; format: cell-based; conditions: human, MCF-10A normal mammary epithelial cells
Method: To check the safety of prepared compounds and evaluate their selectivity towards tumor cells over normal ones, the toxicity of compounds 7a-x were evaluated by 3-(4,5-Dimethylthiazole-2-yl)-2,5-diphenyltetrazol (MTT) assay on the normal human mammary epithelial cell line (MCF-10 A). The human mammary epithelial cell lines were incubated for four days with a concentration of 50 µM of compounds 7a-x.
MTT assay was done to determine the effect of the synthesized compounds on the viability of mammary epithelial cells (MCF-10 A). Compounds 7a-x were incubated with MCF-10 A cells for 4 days at 50 µM concentration, and the viability of cells was determined. See Appendix A.
MTT assay was carried out to study the effect of compounds on mammary epithelial cells (MCF-10A).^7, ^8 The medium in which cells were propagated contained Dulbecco's modified Eagle's medium (DMEM)/ Ham's F-12 medium (1:1) supplemented with epidermal growth factor (20 ng/mL), hydrocortisone (500 ng/mL), insulin (10 μg/mL), 2 mM glutamine and 10% foetal calf serum. After every 2-3 days, the cells were passaged using trypsin ethylenediamine tetra acetic acid (EDTA). The cells were seeded at a density of 10^4 cells mL^-1 in flat-bottomed culture plates containing 96 wells each. After 24 h, medium was removed from the plates and the compounds in (in 0.1% DMSO) were added (in 200 μL medium to yield a final concentration of 0.1% v/v) to the wells of plates. A single compound was designated with four wells followed by incubation of plates for 96h at 37°C. After incubation, medium was removed completely from the plates followed by addition of MTT (0.4 mg/mL in medium) to each well and subsequent incubation of plates for 3h. MTT (along with the medium) was removed and DMSO (150μL) was added to each well of the culture plates, followed by vortexing and subsequent measurement of absorbance (at 540 nm) using microplate reader.

[8] = target: T1, EGFR (Homo sapiens, UniProt P00533); assay: EGFR-TK inhibitory assay; format: biochemical; conditions: for IC50: read-out: EGFR Inhibition IC50 ± SEM
T1 construct: EGFR cytoplasmic domain (EGFR-CD, amino acids 645–1186); His6 (N); made in house; host or cells: Sf-9 insect cells (baculovirus; pBlueBacHis2B / pFASTBacHTc)
T1 sequence (P00533 669-1210): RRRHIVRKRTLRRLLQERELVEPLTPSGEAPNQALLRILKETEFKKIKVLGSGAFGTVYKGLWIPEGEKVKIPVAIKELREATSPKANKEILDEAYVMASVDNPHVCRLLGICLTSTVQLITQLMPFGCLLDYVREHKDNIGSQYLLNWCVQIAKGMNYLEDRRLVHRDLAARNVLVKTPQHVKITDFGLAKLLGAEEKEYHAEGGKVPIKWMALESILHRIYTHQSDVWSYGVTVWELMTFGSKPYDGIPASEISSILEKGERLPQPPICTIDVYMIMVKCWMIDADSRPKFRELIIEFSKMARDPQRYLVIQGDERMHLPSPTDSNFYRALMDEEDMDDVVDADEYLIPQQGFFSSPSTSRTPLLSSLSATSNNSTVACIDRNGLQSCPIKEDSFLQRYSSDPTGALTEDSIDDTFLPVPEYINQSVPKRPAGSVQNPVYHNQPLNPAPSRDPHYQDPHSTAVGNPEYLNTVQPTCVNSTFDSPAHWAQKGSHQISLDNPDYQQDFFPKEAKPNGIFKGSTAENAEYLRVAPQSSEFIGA

[9] = tested on: BAX in MCF-7; assay: BAX activation assay
Method: All reagents were brought to room temperature for at least 30 min before opening (except the human BAX-α Standard). Human BAX-α Standard solution was not be left at room temperature for more than 10 min. Duplicates of all standards, controls, and samples were run. The Assay Layout Sheet was used to determine the number of wells to be used, and any remaining wells were put with the desiccant back into the pouch, and the ziplock was sealed. Unused wells were stored at 4 ◦C. A total of 100 µL of Assay Buffer was pipetted into the S0 (0 pg/mL standard) wells. A total of 100 µL of Standards #1 through #6 was pipetted into the appropriate wells. A total of 100 µL of the samples was pipetted into the appropriate wells. The plate was gently tapped to mix the contents. The plate was sealed and incubated at room temperature on a plate shaker for 1 h at ~500 rpm. The contents of the wells were emptied and washed by adding 400 µL of wash solution to every well. The wash was repeated four more times for a total of five washes. After the final wash, the wells were emptied or aspirated and firmly the plate on a lint-free paper towel was tapped to remove any remaining wash buffer. A total of 100 µL of yellow antibody was pipetted into each well, except the Blank. The plate was sealed and incubated at room temperature on a plate shaker for 1 h at ~500 rpm. The contents of the wells were emptied and washed by adding 400 µL of wash solution to every well. The wash was repeated four more times for a total of five washes. After the final wash, the wells were emptied or aspirated, and the plate was firmly tapped on a lint-free paper towel to remove any remaining wash buffer. A total of 100 µL of blue Conjugate was added to each well, except the Blank. The plate was sealed and incubated at room temperature on a plate shaker for 30 min at ~500 rpm. The contents of the wells were emptied and washed by adding 400 µL of wash solution to every well. The wash was repeated four more times for a total of five washes. After the final wash, the wells were emptied or aspirated and the plate was firmly tapped on a lint-free paper towel to remove any remaining wash buffer. A total of 100 µL of Substrate Solution was pipetted into each well. It was incubated for 30 min at room temperature on a plate shaker at ~500 rpm. A total of 100 µL Stop Solution was pipetted into to each well. The plate reader was blanked against the Blank wells, and the optical density was read at 450 nm. The average net optical density (OD) bound for each standard and sample was calculated by subtracting the average Blank OD from the average OD for each standard and sample. Using linear graph paper, the Average Net OD for each standard versus BAX concentration in each standard were plotted. A straight line was approximated through the points. The concentration of BAX in the unknowns could be determined by interpolation.

[10] = tested on: BT-549; assay: NCI one-dose SRB anti-proliferative screen; format: cell-based; conditions: Homo sapiens, read-out: Cell growth inhibition %
Procedure, shortened: (§3)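 Single dose, 10 µM; SRB colorimetric read-out; run as part of the 60-line, nine-subpanel tumour panel.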

[11] = tested on: UO-31; assay: NCI one-dose SRB anti-proliferative screen; format: cell-based; conditions: Homo sapiens, read-out: Cell growth inhibition %
Procedure, shortened: as §3

[12] = tested on: SF-268; assay: NCI one-dose SRB anti-proliferative screen; format: cell-based; conditions: Homo sapiens, read-out: Cell growth inhibition %
Procedure, shortened: as §3

[13] = tested on: NCI/ADR-RES; assay: NCI one-dose SRB anti-proliferative screen; format: cell-based; conditions: Homo sapiens, read-out: Cell growth inhibition %
Procedure, shortened: as §3

[14] = tested on: NCI-H522; assay: NCI one-dose SRB anti-proliferative screen; format: cell-based; conditions: Homo sapiens, read-out: Cell growth inhibition %
Procedure, shortened: as §3

[15] = tested on: SNB-75; assay: NCI one-dose SRB anti-proliferative screen; format: cell-based; conditions: Homo sapiens, read-out: Cell growth inhibition %
Procedure, shortened: as §3

[16] = tested on: CCRF-CEM; assay: NCI one-dose SRB anti-proliferative screen; format: cell-based; conditions: Homo sapiens, read-out: Cell growth inhibition %
Procedure, shortened: as §3

[17] = target: BRAF^V600E; assay: biochemical
Sequence of BRAF^V600E (P28028 whole entry V585E): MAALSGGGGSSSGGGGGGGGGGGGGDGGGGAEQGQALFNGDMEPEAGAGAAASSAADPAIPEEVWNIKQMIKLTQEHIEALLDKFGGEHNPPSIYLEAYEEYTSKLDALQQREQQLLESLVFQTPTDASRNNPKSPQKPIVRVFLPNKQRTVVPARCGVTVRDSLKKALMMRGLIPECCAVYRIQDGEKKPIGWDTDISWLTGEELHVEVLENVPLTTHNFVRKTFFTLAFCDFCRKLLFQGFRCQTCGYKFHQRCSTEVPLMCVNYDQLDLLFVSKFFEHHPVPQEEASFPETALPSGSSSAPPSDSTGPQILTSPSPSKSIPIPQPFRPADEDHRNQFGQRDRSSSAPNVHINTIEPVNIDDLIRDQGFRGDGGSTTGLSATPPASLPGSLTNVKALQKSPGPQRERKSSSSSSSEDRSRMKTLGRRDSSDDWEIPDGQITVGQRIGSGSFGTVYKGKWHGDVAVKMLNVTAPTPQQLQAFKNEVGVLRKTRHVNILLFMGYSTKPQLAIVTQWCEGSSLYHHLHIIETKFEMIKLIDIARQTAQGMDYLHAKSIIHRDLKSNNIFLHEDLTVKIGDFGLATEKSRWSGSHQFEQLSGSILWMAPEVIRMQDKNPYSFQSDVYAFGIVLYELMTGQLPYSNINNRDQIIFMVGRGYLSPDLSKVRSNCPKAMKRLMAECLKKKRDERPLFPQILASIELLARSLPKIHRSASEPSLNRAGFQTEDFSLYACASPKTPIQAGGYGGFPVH
Method: To further denature the protein, heat (70° C) was applied for 5 min. […] 10 µL of each reaction was loaded into the precast plates and electrophoresis was allowed to proceed. After completion of electrophoresis, the front part of the precast gel plate (holding hot ATP) was cut and afterwards cast-off. The dried gel was developed using a phosphor screen.

[18] = HCT-116, Colon cancer, NCI one dose
[19] = T-47D, Breast cancer, NCI one dose
[20] = RXF 393, Renal cancer, NCI one dose
[21] = BT-549, Breast cancer, NCI one dose
[22] = UO-31, Renal cancer, NCI one dose
[23] = SF-268, CNS Cancer, NCI one dose
[24] = NCI/ADR-RES, Ovarian Cancer, NCI one dose
[25] = NCI-H522, Non-Small Cell Lung Cancer, NCI one dose
[26] = SNB-75, CNS Cancer, NCI one dose
[27] = CCRF-CEM, Leukemia, NCI one dose

SMILES	Growth Percent ([1]; HCT-116 (Colon Cancer))	inhibition at 10 µM [1, 18]	inhibition at 10 µM ([2]; MOLT-4, Leukemia, NCI one dose)	inhibition at 10 µM [3, 19]	inhibition at 10 µM ([4]; K-562, Leukemia, NCI one dose)	Growth Percent ([4]; K-562 (Leukemia))	inhibition at 10 µM [5, 20]	viability at 96 h, 50 µM [7]	IC50 [8]	inhibition at 10 µM [10, 21]	inhibition at 10 µM [11, 22]	inhibition at 10 µM [12, 23]	inhibition at 10 µM [13, 24]	inhibition at 10 µM [14, 25]	inhibition at 10 µM [15, 26]	inhibition at 10 µM [16, 27]	IC50 [17]	melting point	also measured
COc1ccc(-c2nc3cc(-c4nnc(SCC(=O)Nc5ccc(C(=O)/C=C/c6ccccc6)cc5)o4)ccc3[nH]2)cc1 [Compound 7k, 2-{5-[2-(4-Methoxyphenyl)-1 H-benzo[d]imidazol-5-yl]-1,3,4-oxadiazol-2-ylthio}-N-{4-[(E)-3-phenylacryloyl]phenyl}acetamide]	58.69%	41.3%	53%	58%	44.6%	55%	37.9%	91%	550 ± 100 nM	38.1%	33.8%	17.1%	10.3%	17.3%	33.7%	48.2%	1700 ± 200 nM		Growth Percent ([2]; MOLT-4 (Leukemia), 10 µM one dose): 47%; Growth Percent ([3]; T-47D (Breast Cancer), 10 µM one dose): 42.05%; Cytochrome C Fold change ([6]; MCF-7, vs untreated control): 14 fold and 14.00 fold; Cytochrome C Conc ([6]; MCF-7 breast cancer cells): 0.660 ng/mL; fold less potent than Erlotinib against EGFR [8]: approximately 7 fold; BAX Conc ([9]; MCF-7): 279.50 pg/mL and 279.500 pg/mL; BAX Fold change ([9]; MCF-7, vs untreated control): 33 fold and 33.0 fold
COc1ccc(-c2nc3cc(-c4nnc(SCC(=O)Nc5ccc(C(=O)/C=C/c6ccc(OC)c(OC)c6)cc5)o4)ccc3[nH]2)cc1 [Compound 7n, 2-{5-[2-(4-Methoxyphenyl)-1 H-benzo[d]imidazol-5-yl]-1,3,4-oxadiazol-2-ylthio}-N-{4-[(E)-3-(3,4-dimethoxyphenyl)acryloyl]phenyl}acetamide]	57.96%	42%	35.7%	15.4%	52.1%	47%	31.5%	92%	1400 ± 200 nM	1.04%	26.4%	0.44%	6.05%	24.6%	22.1%	38.8%	3700 ± 200 nM	222 to 224 °C	
COc1cc(-c2nc3cc(-c4nnc(SCC(=O)Nc5ccc(C(=O)/C=C/c6ccccc6)cc5)o4)ccc3[nH]2)cc(OC)c1OC [Compound 7u, 2-{5-[2-(3,4,5-Trimethoxyphenyl)-1 H-benzo[d]imidazol-5-yl]-1,3,4-oxadiazol-2-ylthio}-N-{4-[(E)-3-phenylacryloyl]phenyl}acetamide]								90%										188 to 190 °C	inhibition at 10 µM ([1]; HCT-116 (Colon Cancer), NCI one dose 10 µM): 26.5%; inhibition at 10 µM ([2]; MOLT-4 (Leukemia), NCI one dose 10 µM): 21.8%; inhibition at 10 µM ([3]; T-47D (Breast Cancer), NCI one dose 10 µM): 14.8%; inhibition at 10 µM ([4]; K-562 (Leukemia), NCI one dose 10 µM): 14.9%; inhibition at 10 µM ([5]; RXF 393 (Renal Cancer), NCI one dose 10 µM): 0%; inhibition at 10 µM ([10]; BT-549 (Breast Cancer), NCI one dose 10 µM): 28.9%; inhibition at 10 µM ([11]; UO-31 (Renal Cancer), NCI one dose 10 µM): 21%; inhibition at 10 µM ([12]; SF-268 (CNS Cancer), NCI one dose 10 µM): 0%; inhibition at 10 µM ([13]; NCI/ADR-RES (Ovarian Cancer), NCI one dose 10 µM): 0%; inhibition at 10 µM ([14]; NCI-H522 (Non-Small Cell Lung Cancer), NCI one dose 10 µM): 3.99%; inhibition at 10 µM ([15]; SNB-75 (CNS Cancer), NCI one dose 10 µM): 13.8%; inhibition at 10 µM ([16]; CCRF-CEM (Leukemia), NCI one dose 10 µM): 21.9%
